Tests used:
Test in all cases: relative viability (nuclei count vs DMSO), 5 days (fraction); higher = more cells survive
[1] = compound: COC1=CC=C(C=C1)CN2C=CC3=C2C=C(C=C3)C(=O)NO + Nc1nc2[nH]cc(CCc3ccc(C(=O)N[C@@H](CCC(=O)O)C(=O)O)cc3)c2c(=O)[nH]1 [Pemetrexed] (partner 0.2 µM)
Method in brief: (§1)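 Medians of duplicate plates are given as relative viability. That measure is the nuclei count in treated wells divided by the count in vehicle wells. Counts were taken on 4× images of lung cancer cell lines in 1536-well plates, 5 days after pin-tool dosing the day after seeding with one drug alone or a fixed anchor-drug dose plus five library-drug doses (not always all listed) in √10 steps.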

Veliparib + Trametinib = compound: C[C@]1(c2nc3c(C(N)=O)cccc3[nH]2)CCCN1 [Veliparib] + CC(=O)Nc1cccc(-n2c(=O)n(C3CC3)c(=O)c3c(Nc4ccc(I)cc4F)n(C)c(=O)c(C)c32)c1 [Trametinib] (partner 0.02 µM)
Method in brief: as §1

Veliparib + Foretinib = compound: C[C@]1(c2nc3c(C(N)=O)cccc3[nH]2)CCCN1 [Veliparib] + COc1cc2c(Oc3ccc(NC(=O)C4(C(=O)Nc5ccc(F)cc5)CC4)cc3F)ccnc2cc1OCCCN1CCOCC1 [Foretinib] (partner 0.25 µM)
Method in brief: as §1

Veliparib + Pemetrexed = compound: C[C@]1(c2nc3c(C(N)=O)cccc3[nH]2)CCCN1 [Veliparib] + Nc1nc2[nH]cc(CCc3ccc(C(=O)N[C@@H](CCC(=O)O)C(=O)O)cc3)c2c(=O)[nH]1 [Pemetrexed] (partner 0.2 µM)
Method in brief: as §1

Cell Line | relative viability ([1]; first compound 0.08 µM) | relative viability ([1]; first compound 0.253 µM) | relative viability ([1]; first compound 0.8 µM) | relative viability ([1]; first compound 2.53 µM) | relative viability ([1]; first compound 8 µM) | relative viability (Veliparib + Trametinib; first compound 0.02 µM) | relative viability (Veliparib + Trametinib; first compound 0.06325 µM) | relative viability (Veliparib + Trametinib; first compound 0.2 µM) | relative viability (Veliparib + Trametinib; first compound 0.6325 µM) | relative viability (Veliparib + Trametinib; first compound 2 µM) | relative viability (Veliparib + Foretinib; first compound 0.02 µM) | relative viability (Veliparib + Foretinib; first compound 0.06325 µM) | relative viability (Veliparib + Foretinib; first compound 0.2 µM) | relative viability (Veliparib + Foretinib; first compound 0.6325 µM) | relative viability (Veliparib + Foretinib; first compound 2 µM) | relative viability (Veliparib + Pemetrexed; first compound 0.02 µM) | relative viability (Veliparib + Pemetrexed; first compound 0.06325 µM) | relative viability (Veliparib + Pemetrexed; first compound 0.2 µM) | relative viability (Veliparib + Pemetrexed; first compound 0.6325 µM) | relative viability (Veliparib + Pemetrexed; first compound 2 µM)
UMC-11 | 0.568 | 0.854 | 0.823 | 0.793 | 0.784 | 0.7 | 0.759 | 0.707 | 0.682 | 0.635 | 1.29 | 0.959 | 0.998 | 0.948 | 1.02 | 0.931 | 0.749 | 0.878 | 0.804 | 0.759
NCI-H1437 | 0.334 | 0.358 | 0.319 | 0.305 | 0.3 | 0.502 | 0.527 | 0.514 | 0.502 | 0.497 | 1.12 | 1.17 | 1.2 | 1.24 | 1.23 | 0.31 | 0.276 | 0.325 | 0.356 | 0.34
LU99A | – | 0.181 | 0.169 | 0.174 | 0.194 | 0.552 | 0.536 | 0.566 | 0.537 | 0.571 | 0.75 | 0.744 | 0.752 | 0.663 | 0.721 | 0.207 | 0.184 | 0.205 | 0.196 | 0.181
NCI-H1755 | 0.421 | 0.379 | 0.443 | 0.437 | 0.512 | 0.821 | 0.763 | 0.812 | 0.741 | 0.768 | 0.947 | 0.915 | 0.935 | 0.893 | 0.91 | 0.405 | 0.43 | 0.397 | 0.392 | 0.444
LXF-289 | – | 0.937 | 0.872 | 0.907 | 0.881 | 0.671 | 0.691 | 0.668 | 0.681 | 0.657 | 0.986 | 0.956 | 0.957 | 0.984 | 0.962 | 0.897 | 1.02 | 0.913 | 0.856 | 0.997
NCI-H460 | 0.0617 | 0.058 | 0.0547 | 0.0598 | 0.0652 | 0.185 | 0.0956 | 0.1 | 0.109 | 0.202 | 0.994 | 0.909 | 0.952 | 0.948 | 0.983 | 0.0617 | 0.0618 | 0.0599 | 0.0593 | 0.0663

Reference: the supplement of paper PMC10307832
